Active and inactive are the calls of the source. The rule behind the calls is not given here.
Legend:
Cytochrome P450 2C9 = Cytochrome P450 2C9 (Homo sapiens, UniProt P11712); experiment: Inhibition of CYP2C9 in human liver microsomes using diclofenac as substrate after 15 mins in presence of NADPH by LC/MS/MS analysis; type: ADME
[1] = Unbound brain-to-plasma concentration ratio in rat; type: ADME; conditions: read-out: K(p,uu,brain)
[2] = target: Metabotropic glutamate receptor 6 (Homo sapiens) (UniProt O15303); experiment: Negative allosteric modulation of human mGlu6 receptor expressed in HEK/GIRK cells assessed as inhibition of glutamate induced-calcium mobilization preincubated for 2.3 mins followed by glutamate addition measured for 2.6 mins by Fluo-4 AM dye based fluorescence assay; type: functional, cell-based
Chain of Metabotropic glutamate receptor 6 (Homo sapiens) (O15303 whole entry): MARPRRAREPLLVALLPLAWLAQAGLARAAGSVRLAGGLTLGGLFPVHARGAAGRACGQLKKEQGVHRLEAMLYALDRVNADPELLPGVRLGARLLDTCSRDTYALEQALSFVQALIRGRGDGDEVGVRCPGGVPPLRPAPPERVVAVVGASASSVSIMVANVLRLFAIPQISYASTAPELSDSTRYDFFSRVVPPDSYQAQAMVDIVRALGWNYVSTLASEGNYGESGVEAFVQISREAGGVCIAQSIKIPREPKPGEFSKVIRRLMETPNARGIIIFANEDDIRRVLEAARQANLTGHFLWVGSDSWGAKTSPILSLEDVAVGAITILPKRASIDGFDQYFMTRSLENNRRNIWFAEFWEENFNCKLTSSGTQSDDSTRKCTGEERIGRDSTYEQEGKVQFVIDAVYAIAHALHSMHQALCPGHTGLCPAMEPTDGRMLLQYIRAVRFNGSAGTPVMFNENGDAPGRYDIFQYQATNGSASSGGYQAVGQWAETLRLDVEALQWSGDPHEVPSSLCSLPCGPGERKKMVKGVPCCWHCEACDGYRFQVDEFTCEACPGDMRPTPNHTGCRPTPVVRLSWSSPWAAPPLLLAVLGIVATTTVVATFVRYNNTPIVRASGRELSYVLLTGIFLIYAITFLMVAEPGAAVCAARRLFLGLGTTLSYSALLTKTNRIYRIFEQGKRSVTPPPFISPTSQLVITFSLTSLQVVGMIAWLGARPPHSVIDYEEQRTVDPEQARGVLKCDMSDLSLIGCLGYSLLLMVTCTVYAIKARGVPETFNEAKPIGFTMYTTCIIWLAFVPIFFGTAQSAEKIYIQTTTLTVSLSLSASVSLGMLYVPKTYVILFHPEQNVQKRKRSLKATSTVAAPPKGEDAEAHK

[3] = target: Metabotropic glutamate receptor 4 (Rattus norvegicus) (UniProt P31423); experiment: Negative allosteric modulation of rat mGlu4 receptor expressed in HEK/GIRK cells assessed as inhibition of glutamate induced-calcium mobilization preincubated for 2.3 mins followed by glutamate addition measured for 2.6 mins by Fluo-4 AM dye based fluorescence assay; type: functional, cell-based
Chain of Metabotropic glutamate receptor 4 (Rattus norvegicus) (P31423 whole entry): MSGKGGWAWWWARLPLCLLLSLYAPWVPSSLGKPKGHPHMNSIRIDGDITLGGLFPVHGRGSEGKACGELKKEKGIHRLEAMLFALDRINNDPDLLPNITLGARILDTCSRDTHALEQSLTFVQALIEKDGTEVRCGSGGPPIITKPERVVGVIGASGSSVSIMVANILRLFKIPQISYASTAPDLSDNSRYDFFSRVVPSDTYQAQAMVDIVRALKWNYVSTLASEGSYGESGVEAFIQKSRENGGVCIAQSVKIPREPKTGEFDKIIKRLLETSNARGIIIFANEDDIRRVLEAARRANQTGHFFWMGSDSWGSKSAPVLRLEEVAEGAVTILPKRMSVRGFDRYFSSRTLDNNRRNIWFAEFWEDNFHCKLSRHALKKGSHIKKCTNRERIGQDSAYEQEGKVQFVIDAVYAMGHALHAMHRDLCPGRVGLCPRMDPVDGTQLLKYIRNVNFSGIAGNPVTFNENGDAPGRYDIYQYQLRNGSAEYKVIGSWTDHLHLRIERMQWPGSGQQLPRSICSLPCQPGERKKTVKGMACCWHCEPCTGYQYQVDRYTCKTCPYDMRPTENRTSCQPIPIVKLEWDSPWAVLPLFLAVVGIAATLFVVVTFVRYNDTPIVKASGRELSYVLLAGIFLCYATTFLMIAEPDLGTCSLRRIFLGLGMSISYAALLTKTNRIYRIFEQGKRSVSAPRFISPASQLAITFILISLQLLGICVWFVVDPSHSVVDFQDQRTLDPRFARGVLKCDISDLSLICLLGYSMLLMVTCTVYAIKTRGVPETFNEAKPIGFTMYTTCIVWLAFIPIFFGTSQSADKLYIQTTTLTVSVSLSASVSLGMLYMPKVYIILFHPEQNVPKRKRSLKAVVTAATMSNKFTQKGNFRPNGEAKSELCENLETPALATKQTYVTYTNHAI

[4] = Fraction unbound in mouse plasma at 5 uM after 4 hrs by equilibrium dialysis based LC/MS/MS analysis; type: ADME, cell-free
[5] = target: B1 bradykinin receptor (Homo sapiens) (UniProt P46663); experiment: Inhibition of human bradykinin B1 receptor at 10 uM relative to control
Chain of B1 bradykinin receptor (Homo sapiens) (P46663 whole entry): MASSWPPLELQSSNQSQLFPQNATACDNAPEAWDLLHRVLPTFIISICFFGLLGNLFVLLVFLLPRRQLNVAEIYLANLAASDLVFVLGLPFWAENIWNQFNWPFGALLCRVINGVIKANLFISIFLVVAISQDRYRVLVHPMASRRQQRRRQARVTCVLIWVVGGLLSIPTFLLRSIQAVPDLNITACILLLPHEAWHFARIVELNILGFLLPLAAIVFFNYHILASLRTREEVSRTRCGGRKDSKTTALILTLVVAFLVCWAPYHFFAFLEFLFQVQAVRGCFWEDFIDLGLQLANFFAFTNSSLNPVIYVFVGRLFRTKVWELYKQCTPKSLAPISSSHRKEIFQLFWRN

[6] = target: Cannabinoid receptor 1 (Homo sapiens) (UniProt P21554); experiment: Inhibition of human cannabinoid CB1 receptor at 10 uM relative to control
Chain of Cannabinoid receptor 1 (Homo sapiens) (P21554 whole entry): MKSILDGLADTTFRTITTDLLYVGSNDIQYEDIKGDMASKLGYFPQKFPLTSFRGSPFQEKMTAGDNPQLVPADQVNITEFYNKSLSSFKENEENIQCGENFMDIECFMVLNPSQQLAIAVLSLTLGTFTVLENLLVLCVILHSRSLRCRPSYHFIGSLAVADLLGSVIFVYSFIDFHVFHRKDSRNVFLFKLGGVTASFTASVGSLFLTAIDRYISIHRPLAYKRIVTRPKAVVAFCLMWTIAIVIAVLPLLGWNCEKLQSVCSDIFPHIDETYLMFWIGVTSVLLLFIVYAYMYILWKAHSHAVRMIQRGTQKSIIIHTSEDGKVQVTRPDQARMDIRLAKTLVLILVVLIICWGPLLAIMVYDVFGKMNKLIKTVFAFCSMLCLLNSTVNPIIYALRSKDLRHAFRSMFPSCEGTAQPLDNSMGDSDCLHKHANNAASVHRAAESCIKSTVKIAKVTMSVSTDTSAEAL

[7] = target: Histamine H2 receptor (Homo sapiens) (UniProt P25021); experiment: Inhibition of human histamine H2 receptor at 10 uM relative to control
Chain of Histamine H2 receptor (Homo sapiens) (P25021 whole entry): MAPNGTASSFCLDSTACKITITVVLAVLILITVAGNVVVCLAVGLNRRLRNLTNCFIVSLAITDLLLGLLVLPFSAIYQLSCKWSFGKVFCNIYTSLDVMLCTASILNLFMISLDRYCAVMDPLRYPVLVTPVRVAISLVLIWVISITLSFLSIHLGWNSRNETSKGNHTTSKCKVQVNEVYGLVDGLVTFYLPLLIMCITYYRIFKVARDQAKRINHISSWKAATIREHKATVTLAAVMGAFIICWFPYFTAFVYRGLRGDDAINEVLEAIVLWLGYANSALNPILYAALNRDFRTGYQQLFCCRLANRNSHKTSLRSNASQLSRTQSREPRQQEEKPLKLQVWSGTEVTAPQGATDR

[8] = target: Neuropeptide Y receptor type 2 (Homo sapiens) (UniProt P49146); experiment: Inhibition of human […] Y2 receptor at 10 uM relative to control
Chain of Neuropeptide Y receptor type 2 (Homo sapiens) (P49146 whole entry): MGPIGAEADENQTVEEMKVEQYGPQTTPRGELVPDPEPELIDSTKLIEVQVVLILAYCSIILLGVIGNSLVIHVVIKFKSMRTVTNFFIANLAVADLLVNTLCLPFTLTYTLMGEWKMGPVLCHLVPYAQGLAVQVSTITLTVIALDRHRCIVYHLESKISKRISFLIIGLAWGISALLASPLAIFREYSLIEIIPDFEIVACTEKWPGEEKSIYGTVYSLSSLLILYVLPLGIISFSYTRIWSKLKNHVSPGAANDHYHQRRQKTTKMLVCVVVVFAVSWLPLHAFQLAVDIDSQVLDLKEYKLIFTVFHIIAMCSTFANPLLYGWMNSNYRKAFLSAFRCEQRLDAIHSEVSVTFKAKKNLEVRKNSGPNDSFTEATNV

Mus musculus = species: Mus musculus; experiment: Inhibition of mouse phorbol ester receptor at 10 uM relative to control
[9] = target: 5-hydroxytryptamine receptor 1A (Homo sapiens) (UniProt P08908); experiment: Inhibition of human 5-HT1A receptor at 10 uM relative to control
Chain of 5-hydroxytryptamine receptor 1A (Homo sapiens) (P08908 whole entry): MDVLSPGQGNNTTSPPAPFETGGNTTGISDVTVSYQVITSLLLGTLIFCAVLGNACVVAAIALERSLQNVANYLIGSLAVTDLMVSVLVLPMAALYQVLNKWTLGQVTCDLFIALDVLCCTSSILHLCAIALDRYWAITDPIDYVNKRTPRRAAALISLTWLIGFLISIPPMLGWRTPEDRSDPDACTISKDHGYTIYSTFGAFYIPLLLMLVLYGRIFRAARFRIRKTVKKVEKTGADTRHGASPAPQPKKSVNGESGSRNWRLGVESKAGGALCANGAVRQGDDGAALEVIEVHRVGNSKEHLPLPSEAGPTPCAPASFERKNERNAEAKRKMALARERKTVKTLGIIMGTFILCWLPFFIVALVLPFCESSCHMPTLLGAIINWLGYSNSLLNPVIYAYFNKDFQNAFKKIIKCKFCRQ

[10] = target: 5-hydroxytryptamine receptor 3A (Homo sapiens) (UniProt P46098); experiment: Inhibition of human 5-HT3 receptor at 10 uM relative to control
Chain of 5-hydroxytryptamine receptor 3A (Homo sapiens) (P46098 whole entry): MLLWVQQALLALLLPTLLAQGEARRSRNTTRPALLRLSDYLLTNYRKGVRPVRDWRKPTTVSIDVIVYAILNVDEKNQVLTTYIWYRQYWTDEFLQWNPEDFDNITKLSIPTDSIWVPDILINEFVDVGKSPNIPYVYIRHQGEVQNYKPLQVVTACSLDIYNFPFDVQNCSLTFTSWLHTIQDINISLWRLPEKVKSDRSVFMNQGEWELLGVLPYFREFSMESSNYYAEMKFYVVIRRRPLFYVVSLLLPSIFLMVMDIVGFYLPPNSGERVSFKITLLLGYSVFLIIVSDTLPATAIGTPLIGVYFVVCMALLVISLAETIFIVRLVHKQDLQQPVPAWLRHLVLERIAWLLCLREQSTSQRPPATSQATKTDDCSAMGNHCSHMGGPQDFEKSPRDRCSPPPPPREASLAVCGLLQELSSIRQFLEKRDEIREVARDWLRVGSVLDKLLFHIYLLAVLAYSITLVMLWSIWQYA

[11] = target: Sigma non-opioid intracellular receptor 1 (Homo sapiens) (UniProt Q99720); experiment: Inhibition of human sigma 1 receptor at 10 uM relative to control
Chain of Sigma non-opioid intracellular receptor 1 (Homo sapiens) (Q99720 whole entry): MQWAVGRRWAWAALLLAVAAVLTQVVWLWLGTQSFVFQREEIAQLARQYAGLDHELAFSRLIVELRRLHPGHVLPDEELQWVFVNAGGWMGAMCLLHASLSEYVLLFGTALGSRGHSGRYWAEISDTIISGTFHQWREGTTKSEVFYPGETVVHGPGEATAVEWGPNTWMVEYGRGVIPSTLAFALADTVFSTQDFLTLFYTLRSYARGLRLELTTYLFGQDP

Chain of Cytochrome P450 2C9 (P11712 whole entry): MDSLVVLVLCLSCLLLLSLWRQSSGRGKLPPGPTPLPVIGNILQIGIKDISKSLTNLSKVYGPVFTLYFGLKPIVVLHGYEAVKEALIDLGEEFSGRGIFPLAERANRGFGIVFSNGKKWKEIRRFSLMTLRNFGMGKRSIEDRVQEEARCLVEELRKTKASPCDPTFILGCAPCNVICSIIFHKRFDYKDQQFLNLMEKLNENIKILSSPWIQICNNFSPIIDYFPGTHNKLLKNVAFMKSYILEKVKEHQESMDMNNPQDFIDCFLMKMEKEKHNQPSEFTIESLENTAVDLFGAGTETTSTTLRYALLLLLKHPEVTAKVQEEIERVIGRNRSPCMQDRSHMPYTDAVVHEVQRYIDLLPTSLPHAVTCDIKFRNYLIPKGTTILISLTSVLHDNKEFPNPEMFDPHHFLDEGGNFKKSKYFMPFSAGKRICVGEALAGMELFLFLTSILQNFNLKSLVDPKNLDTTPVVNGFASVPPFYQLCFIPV

Question: With `C[C@@H](COc1ccn(-c2ccc(F)cc2)c(=O)c1)Oc1ccccc1` as the molecule, how does the IC50 (Cytochrome P450 2C9) read?
Answer: > 30 µM

Question: And the Kp uu [1]?
Answer: 0.4

Question: And the inhibition [2]?
Answer: inactive

Question: And the inhibition [3]?
Answer: inactive

Question: What about the fu [4] of the same molecule?
Answer: 0.18

Question: And the inhibition [5]?
Answer: > 50%

Question: What about the inhibition [6] of the same molecule?
Answer: > 50%

Question: What about the inhibition [7] of the same molecule?
Answer: > 50%

Question: What about the inhibition [8] of the same molecule?
Answer: > 50%

Question: What about the inhibition (Mus musculus) of the same molecule?
Answer: > 50%

Question: What about the inhibition [9] of the same molecule?
Answer: > 50%

Question: What about the inhibition [10] of the same molecule?
Answer: > 50%

Question: And the inhibition [11]?
Answer: > 50%
